Measurements reported in ChEMBL document CHEMBL5715936, “Selective Itk inhibitors block T-cell activation and murine lung inflammation” (Biochemistry, 2004).

Experiments:
[1] = biological target: T1, Tyrosine-protein kinase Tec (Homo sapiens, UniProt P42680); test: Inhibition of Tec (unknown origin) using GST-SLP-76 as peptide substrate incubated for 10 mins in presence of [gamma-33P]ATP by scintillation counter assay
T1 sequence (P42680 whole entry): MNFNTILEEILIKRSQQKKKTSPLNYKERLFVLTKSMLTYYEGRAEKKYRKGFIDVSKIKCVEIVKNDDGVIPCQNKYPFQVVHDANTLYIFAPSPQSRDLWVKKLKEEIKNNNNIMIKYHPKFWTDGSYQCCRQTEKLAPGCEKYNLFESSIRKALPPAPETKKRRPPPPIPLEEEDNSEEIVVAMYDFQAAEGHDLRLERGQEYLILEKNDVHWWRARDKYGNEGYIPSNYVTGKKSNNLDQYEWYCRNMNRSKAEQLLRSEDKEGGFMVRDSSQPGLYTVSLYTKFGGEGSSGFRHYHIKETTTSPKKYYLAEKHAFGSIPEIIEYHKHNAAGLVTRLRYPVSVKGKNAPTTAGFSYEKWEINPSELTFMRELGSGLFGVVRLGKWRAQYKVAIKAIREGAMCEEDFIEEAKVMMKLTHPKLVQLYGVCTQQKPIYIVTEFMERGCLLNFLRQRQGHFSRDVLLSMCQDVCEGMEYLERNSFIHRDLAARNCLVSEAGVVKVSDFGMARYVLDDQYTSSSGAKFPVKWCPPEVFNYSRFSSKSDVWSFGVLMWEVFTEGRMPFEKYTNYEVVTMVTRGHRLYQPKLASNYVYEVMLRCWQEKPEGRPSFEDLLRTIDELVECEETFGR

[2] = biological target: Tyrosine-protein kinase Lck (Homo sapiens, UniProt P06239); test: Inhibition of Lck (unknown origin) using GST-SLP-76 as peptide substrate incubated for 10 mins in presence of [gamma-33P]ATP by scintillation counter assay
[3] = biological target: Tyrosine-protein kinase BTK (Homo sapiens, UniProt Q06187); test: Inhibition of Btk (unknown origin) using GST-SLP-76 as peptide substrate incubated for 10 mins in presence of [gamma-33P]ATP by scintillation counter assay
[4] = biological target: Mitogen-activated protein kinase 3 (Homo sapiens, UniProt P27361); test: Inhibition of ERK-1 (unknown origin) using GST-SLP-76 as peptide substrate incubated for 10 mins in presence of [gamma-33P]ATP by scintillation counter assay
[5] = biological target: Cyclin-dependent kinase 2 (Homo sapiens, UniProt P24941); test: Inhibition of Cdk2 (unknown origin) using GST-SLP-76 as peptide substrate incubated for 10 mins in presence of [gamma-33P]ATP by scintillation counter assay
[6] = biological target: T2, Tyrosine-protein kinase TXK (Homo sapiens, UniProt P42681); test: Inhibition of Txk (unknown origin) using GST-SLP-76 as peptide substrate incubated for 10 mins in presence of [gamma-33P]ATP by scintillation counter assay
T2 sequence (P42681 whole entry): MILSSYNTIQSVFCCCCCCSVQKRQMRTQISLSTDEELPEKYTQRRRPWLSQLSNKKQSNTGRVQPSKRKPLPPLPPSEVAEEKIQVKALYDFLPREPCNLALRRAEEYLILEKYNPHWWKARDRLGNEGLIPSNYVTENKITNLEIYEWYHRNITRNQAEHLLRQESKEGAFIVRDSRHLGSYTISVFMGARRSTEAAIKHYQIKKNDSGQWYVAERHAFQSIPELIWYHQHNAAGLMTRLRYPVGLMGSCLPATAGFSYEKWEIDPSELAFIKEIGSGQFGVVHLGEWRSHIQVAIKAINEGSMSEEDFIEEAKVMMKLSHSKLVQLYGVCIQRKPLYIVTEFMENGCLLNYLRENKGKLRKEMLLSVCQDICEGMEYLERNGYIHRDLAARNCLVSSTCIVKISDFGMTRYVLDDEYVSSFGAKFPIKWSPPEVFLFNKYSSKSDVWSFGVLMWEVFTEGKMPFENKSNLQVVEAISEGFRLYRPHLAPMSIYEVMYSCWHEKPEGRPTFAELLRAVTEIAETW

[7] = biological target: T3, Cytoplasmic tyrosine-protein kinase BMX (Homo sapiens, UniProt P51813); test: Inhibition of Bmx (unknown origin) using GST-SLP-76 as peptide substrate incubated for 10 mins in presence of [gamma-33P]ATP by scintillation counter assay
T3 sequence (P51813 whole entry): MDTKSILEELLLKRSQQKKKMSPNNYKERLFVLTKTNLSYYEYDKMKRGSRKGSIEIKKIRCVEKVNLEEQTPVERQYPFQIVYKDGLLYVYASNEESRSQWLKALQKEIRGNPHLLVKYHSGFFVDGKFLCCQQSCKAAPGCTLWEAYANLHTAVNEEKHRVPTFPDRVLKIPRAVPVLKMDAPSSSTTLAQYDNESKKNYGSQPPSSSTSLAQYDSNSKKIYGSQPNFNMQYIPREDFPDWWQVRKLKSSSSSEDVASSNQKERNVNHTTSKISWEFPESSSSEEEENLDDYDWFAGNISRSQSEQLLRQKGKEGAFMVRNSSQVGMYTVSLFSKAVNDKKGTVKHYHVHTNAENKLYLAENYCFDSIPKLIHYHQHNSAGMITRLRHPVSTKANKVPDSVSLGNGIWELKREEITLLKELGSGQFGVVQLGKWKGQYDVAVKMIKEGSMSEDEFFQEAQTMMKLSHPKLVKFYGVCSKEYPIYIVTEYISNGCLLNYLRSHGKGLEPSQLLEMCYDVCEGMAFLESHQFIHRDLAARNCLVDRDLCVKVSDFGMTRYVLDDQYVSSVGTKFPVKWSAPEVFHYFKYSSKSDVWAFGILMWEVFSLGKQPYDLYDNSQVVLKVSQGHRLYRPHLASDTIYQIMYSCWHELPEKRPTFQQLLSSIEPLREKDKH

[8] = biological target: cAMP-dependent protein kinase (PKA) (Homo sapiens, UniProt P22694+P17612+P22612); test: Inhibition of PKA (unknown origin) using GST-SLP-76 as peptide substrate incubated for 10 mins in presence of [gamma-33P]ATP by scintillation counter assay; format: protein assay
[9] = biological target: Tyrosine-protein kinase SYK (Homo sapiens, UniProt P43405); test: Inhibition of Syk (unknown origin) using GST-SLP-76 as peptide substrate incubated for 10 mins in presence of [gamma-33P]ATP by scintillation counter assay
[10] = biological target: T4, Tyrosine-protein kinase ZAP-70 (Homo sapiens, UniProt P43403); test: Inhibition of ZAP-70 (unknown origin) using GST-SLP-76 as peptide substrate incubated for 10 mins in presence of [gamma-33P]ATP by scintillation counter assay
T4 sequence (P43403 whole entry): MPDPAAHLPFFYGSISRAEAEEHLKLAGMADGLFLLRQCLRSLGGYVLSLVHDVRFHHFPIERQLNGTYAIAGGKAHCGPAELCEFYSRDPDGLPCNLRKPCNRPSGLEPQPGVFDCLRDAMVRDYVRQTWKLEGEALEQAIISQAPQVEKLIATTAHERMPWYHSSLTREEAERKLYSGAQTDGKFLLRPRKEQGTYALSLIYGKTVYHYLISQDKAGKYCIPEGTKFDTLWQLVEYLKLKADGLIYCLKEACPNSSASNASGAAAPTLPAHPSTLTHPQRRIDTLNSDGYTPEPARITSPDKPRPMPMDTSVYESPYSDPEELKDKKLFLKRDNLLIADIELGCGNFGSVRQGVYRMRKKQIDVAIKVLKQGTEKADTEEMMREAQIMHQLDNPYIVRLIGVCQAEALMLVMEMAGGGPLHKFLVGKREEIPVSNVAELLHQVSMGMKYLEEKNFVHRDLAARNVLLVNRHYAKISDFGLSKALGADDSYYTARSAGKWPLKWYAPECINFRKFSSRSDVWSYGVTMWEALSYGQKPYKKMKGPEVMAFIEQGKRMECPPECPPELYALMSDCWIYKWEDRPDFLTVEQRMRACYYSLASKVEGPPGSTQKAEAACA

[11] = biological target: Epidermal growth factor receptor (Homo sapiens, UniProt P00533); test: Inhibition of EGFR (unknown origin) using GST-SLP-76 as peptide substrate incubated for 10 mins in presence of [gamma-33P]ATP by scintillation counter assay
Protein kinase C (PKC) = test: Inhibition of PKC (unknown origin) using GST-SLP-76 as peptide substrate incubated for 10 mins in presence of [gamma-33P]ATP by scintillation counter assay; format: protein assay, Homo sapiens

Mitogen-activated protein kinase 3, sequence (P27361 whole entry): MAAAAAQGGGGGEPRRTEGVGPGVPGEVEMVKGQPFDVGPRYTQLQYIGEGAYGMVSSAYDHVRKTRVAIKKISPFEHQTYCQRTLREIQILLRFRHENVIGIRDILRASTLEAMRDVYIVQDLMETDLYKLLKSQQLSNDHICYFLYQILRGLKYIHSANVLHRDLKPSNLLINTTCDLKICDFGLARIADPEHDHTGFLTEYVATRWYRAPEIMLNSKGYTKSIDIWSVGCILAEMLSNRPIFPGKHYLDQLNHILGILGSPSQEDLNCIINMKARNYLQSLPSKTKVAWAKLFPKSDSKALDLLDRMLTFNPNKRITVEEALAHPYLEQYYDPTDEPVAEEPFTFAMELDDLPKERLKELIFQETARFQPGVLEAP
Tyrosine-protein kinase BTK, sequence (Q06187 whole entry): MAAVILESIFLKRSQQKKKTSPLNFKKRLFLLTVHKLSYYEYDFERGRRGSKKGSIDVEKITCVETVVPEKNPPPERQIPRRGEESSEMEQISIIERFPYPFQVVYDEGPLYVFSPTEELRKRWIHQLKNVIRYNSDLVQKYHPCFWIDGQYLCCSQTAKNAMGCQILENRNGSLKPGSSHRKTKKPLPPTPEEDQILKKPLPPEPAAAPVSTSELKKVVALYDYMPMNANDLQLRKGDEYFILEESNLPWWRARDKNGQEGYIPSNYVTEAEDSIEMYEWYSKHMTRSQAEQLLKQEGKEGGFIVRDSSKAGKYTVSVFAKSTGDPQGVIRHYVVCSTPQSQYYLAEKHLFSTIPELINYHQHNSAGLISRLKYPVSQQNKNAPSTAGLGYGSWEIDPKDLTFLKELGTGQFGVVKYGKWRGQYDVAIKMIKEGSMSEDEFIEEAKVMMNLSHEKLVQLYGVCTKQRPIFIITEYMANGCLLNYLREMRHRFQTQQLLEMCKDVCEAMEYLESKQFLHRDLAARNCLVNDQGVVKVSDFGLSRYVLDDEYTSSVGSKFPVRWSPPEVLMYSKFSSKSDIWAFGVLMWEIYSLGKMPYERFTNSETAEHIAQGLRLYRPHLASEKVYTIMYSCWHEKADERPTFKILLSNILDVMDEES
Tyrosine-protein kinase Lck, sequence (P06239 whole entry): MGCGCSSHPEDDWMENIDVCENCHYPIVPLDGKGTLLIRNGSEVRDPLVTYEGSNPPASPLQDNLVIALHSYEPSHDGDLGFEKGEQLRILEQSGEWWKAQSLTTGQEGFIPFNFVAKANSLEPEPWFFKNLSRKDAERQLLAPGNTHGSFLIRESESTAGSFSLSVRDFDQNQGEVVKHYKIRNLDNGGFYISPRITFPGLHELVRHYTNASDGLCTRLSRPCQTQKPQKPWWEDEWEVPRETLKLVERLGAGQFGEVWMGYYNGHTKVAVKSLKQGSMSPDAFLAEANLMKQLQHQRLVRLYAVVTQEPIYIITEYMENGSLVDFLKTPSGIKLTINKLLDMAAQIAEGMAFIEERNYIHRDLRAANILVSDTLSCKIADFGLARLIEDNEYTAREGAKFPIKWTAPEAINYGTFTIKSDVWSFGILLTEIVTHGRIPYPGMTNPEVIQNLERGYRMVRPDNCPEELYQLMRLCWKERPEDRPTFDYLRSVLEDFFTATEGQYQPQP
Epidermal growth factor receptor, sequence (P00533 whole entry): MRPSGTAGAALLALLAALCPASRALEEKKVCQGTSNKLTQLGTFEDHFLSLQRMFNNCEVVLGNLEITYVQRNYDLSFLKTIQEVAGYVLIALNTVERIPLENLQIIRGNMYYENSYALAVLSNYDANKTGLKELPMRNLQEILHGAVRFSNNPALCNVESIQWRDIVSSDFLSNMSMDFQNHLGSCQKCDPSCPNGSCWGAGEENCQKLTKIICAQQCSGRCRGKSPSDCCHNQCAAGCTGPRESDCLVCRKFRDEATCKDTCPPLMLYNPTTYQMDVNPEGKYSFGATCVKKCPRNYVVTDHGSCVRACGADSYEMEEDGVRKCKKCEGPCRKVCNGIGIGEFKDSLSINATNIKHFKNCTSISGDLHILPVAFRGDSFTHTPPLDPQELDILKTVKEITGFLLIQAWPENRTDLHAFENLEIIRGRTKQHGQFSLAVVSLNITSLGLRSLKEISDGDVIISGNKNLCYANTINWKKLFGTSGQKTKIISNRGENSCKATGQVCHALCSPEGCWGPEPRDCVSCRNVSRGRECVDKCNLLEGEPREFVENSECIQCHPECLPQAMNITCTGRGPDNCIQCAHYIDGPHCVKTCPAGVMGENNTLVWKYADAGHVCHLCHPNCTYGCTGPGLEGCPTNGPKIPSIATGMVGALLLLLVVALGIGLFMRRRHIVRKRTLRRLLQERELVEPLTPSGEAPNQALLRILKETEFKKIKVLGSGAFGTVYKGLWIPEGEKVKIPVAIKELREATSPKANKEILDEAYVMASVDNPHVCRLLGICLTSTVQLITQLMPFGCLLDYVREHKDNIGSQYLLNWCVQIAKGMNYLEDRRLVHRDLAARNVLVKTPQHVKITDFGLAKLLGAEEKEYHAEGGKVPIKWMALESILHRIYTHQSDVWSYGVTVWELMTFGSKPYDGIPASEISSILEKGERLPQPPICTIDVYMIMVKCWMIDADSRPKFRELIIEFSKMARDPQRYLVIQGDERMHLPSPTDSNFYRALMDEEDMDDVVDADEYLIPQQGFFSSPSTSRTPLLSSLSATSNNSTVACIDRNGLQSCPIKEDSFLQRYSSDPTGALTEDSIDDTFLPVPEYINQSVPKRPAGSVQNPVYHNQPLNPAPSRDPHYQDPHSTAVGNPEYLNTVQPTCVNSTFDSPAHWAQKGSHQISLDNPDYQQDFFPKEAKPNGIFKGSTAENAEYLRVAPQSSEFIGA

CC(=O)N1CCN(C(=O)c2cccc(CSc3cnc(NC(=O)c4ccc(N(C)C)cc4)s3)c2)CC1
IC50 [1]: > 50 µM
IC50 [2]: > 25 µM
IC50 [3]: 49 µM
IC50 [4]: > 50 µM
IC50 [5]: 27 µM
IC50 [6]: > 50 µM
IC50 [7]: 20 µM
IC50 [8]: > 50 µM
IC50 [9]: > 50 µM
IC50 [10]: > 50 µM
IC50 [11]: > 50 µM
IC50 (Protein kinase C (PKC)): > 50 µM
